“And” between values parts separate entries of the source, which are not always exact repeats. Identical values can stand only once.
Settings: Hot wire method

FC(F)(F)/C=C/Cl [(E)-1-chloro-3,3,3-trifluoroprop-1-ene]
Settings	thermal conductivity
362.89 K, 26388 kPa, Liquid	0.07962 W/m/K
362.94 K, 8395 kPa, Liquid	0.06981 W/m/K
362.97 K, 8410 kPa, Liquid	0.06989 W/m/K
363.01 K, 5513 kPa, Liquid	0.06793 W/m/K
363.02 K, 5522 kPa, Liquid	0.06801 W/m/K
363.04 K, 15375 kPa, Liquid	0.07401 W/m/K
363.05 K, 588 kPa, Fluid (supercritical or subcritical phases)	0.01642 W/m/K
363.05 K, 3030 kPa, Liquid	0.06616 W/m/K
363.06 K, 3018 kPa, Liquid	0.06615 W/m/K
363.06 K, 18623 kPa, Liquid	0.07592 W/m/K
363.07 K, 781 kPa, Liquid	0.06438 W/m/K
363.07 K, 11657 kPa, Liquid	0.07182 W/m/K
363.07 K, 11679 kPa, Liquid	0.07186 W/m/K
363.07 K, 15350 kPa, Liquid	0.07393 W/m/K
363.07 K, 18631 kPa, Liquid	0.07609 W/m/K
363.08 K, 794 kPa, Liquid	0.06441 W/m/K
363.17 K, 485 kPa, Fluid (supercritical or subcritical phases)	0.01636 W/m/K
363.25 K, 8386 kPa, Liquid	0.0699 W/m/K
363.25 K, 8410 kPa, Liquid	0.06983 W/m/K
363.28 K, 18567 kPa, Liquid	0.07546 W/m/K
363.3 K, 5515 kPa, Liquid	0.0679 W/m/K
363.3 K, 15333 kPa, Liquid	0.0739 W/m/K
363.3 K, 18619 kPa, Liquid	0.07574 W/m/K
363.31 K, 369 kPa, Fluid (supercritical or subcritical phases)	0.01625 W/m/K
363.31 K, 5517 kPa, Liquid	0.06789 W/m/K
363.32 K, 15362 kPa, Liquid	0.07394 W/m/K
363.34 K, 11659 kPa, Liquid	0.07179 W/m/K
363.35 K, 3013 kPa, Liquid	0.06606 W/m/K
363.35 K, 11674 kPa, Liquid	0.07181 W/m/K
363.36 K, 3021 kPa, Liquid	0.06613 W/m/K
363.38 K, 789 kPa, Liquid	0.06433 W/m/K
363.39 K, 791 kPa, Liquid	0.06436 W/m/K
363.56 K, 18588 kPa, Liquid	0.07568 W/m/K
363.56 K, 18589 kPa, Liquid	0.07561 W/m/K
363.85 K, 18555 kPa, Liquid	0.07553 W/m/K
363.86 K, 18574 kPa, Liquid	0.07558 W/m/K
381.79 K, 728 kPa, Fluid (supercritical or subcritical phases)	0.01756 W/m/K
381.91 K, 529 kPa, Fluid (supercritical or subcritical phases)	0.01757 W/m/K
381.98 K, 885 kPa, Fluid (supercritical or subcritical phases)	0.0177 W/m/K
381.99 K, 883 kPa, Fluid (supercritical or subcritical phases)	0.01771 W/m/K
382.06 K, 727 kPa, Fluid (supercritical or subcritical phases)	0.0176 W/m/K
382.19 K, 530 kPa, Fluid (supercritical or subcritical phases)	0.01766 W/m/K
382.26 K, 884 kPa, Fluid (supercritical or subcritical phases)	0.01776 W/m/K
382.27 K, 885 kPa, Fluid (supercritical or subcritical phases)	0.01778 W/m/K
382.29 K, 1304 kPa, Liquid	0.05933 W/m/K
382.3 K, 1303 kPa, Liquid	0.0594 W/m/K
382.3 K, 7889 kPa, Liquid	0.06498 W/m/K
382.3 K, 7898 kPa, Liquid	0.065 W/m/K
382.32 K, 1195 kPa, Fluid (supercritical or subcritical phases)	0.01851 W/m/K
382.32 K, 1196 kPa, Fluid (supercritical or subcritical phases)	0.01849 W/m/K
382.35 K, 727 kPa, Fluid (supercritical or subcritical phases)	0.01767 W/m/K
382.35 K, 20108 kPa, Liquid	0.07266 W/m/K
382.36 K, 20093 kPa, Liquid	0.07261 W/m/K
382.37 K, 6276 kPa, Liquid	0.06375 W/m/K
382.38 K, 6283 kPa, Liquid	0.06377 W/m/K
382.38 K, 35584 kPa, Liquid	0.0803 W/m/K
382.39 K, 35567 kPa, Liquid	0.08024 W/m/K
382.4 K, 16804 kPa, Liquid	0.07075 W/m/K
382.41 K, 16825 kPa, Liquid	0.07099 W/m/K
382.42 K, 33043 kPa, Liquid	0.07905 W/m/K
382.42 K, 33046 kPa, Liquid	0.07909 W/m/K
382.44 K, 13721 kPa, Liquid	0.06888 W/m/K
382.45 K, 13744 kPa, Liquid	0.06889 W/m/K
382.46 K, 28331 kPa, Liquid	0.07696 W/m/K
382.47 K, 4293 kPa, Liquid	0.06211 W/m/K
382.47 K, 28334 kPa, Liquid	0.07681 W/m/K
382.48 K, 1001 kPa, Fluid (supercritical or subcritical phases)	0.01789 W/m/K
382.48 K, 4301 kPa, Liquid	0.06219 W/m/K
382.49 K, 529 kPa, Fluid (supercritical or subcritical phases)	0.01769 W/m/K
382.49 K, 1000 kPa, Fluid (supercritical or subcritical phases)	0.01794 W/m/K
382.5 K, 2615 kPa, Liquid	0.06083 W/m/K
382.51 K, 2614 kPa, Liquid	0.06065 W/m/K
382.51 K, 10968 kPa, Liquid	0.06711 W/m/K
382.51 K, 10976 kPa, Liquid	0.0674 W/m/K
382.53 K, 24122 kPa, Liquid	0.07474 W/m/K
382.54 K, 24143 kPa, Liquid	0.07473 W/m/K
382.55 K, 1308 kPa, Liquid	0.0594 W/m/K
382.56 K, 884 kPa, Fluid (supercritical or subcritical phases)	0.01781 W/m/K and 0.01779 W/m/K
382.56 K, 1302 kPa, Liquid	0.05937 W/m/K
382.56 K, 7890 kPa, Liquid	0.06497 W/m/K
382.56 K, 7897 kPa, Liquid	0.06497 W/m/K
382.56 K, 8382 kPa, Liquid	0.06533 W/m/K
382.56 K, 8389 kPa, Liquid	0.06536 W/m/K
382.58 K, 20086 kPa, Liquid	0.07258 W/m/K
382.58 K, 20109 kPa, Liquid	0.07262 W/m/K
382.6 K, 1196 kPa, Fluid (supercritical or subcritical phases)	0.01858 W/m/K
382.61 K, 1196 kPa, Fluid (supercritical or subcritical phases)	0.01858 W/m/K
382.62 K, 35572 kPa, Liquid	0.07991 W/m/K
382.63 K, 6276 kPa, Liquid	0.06372 W/m/K
382.63 K, 35594 kPa, Liquid	0.08017 W/m/K
382.64 K, 727 kPa, Fluid (supercritical or subcritical phases)	0.01771 W/m/K
382.64 K, 6276 kPa, Liquid	0.06375 W/m/K
382.65 K, 16810 kPa, Liquid	0.07072 W/m/K
382.65 K, 33011 kPa, Liquid	0.079 W/m/K
382.66 K, 16821 kPa, Liquid	0.07073 W/m/K
382.66 K, 33037 kPa, Liquid	0.07905 W/m/K
382.7 K, 13733 kPa, Liquid	0.0689 W/m/K
382.71 K, 13730 kPa, Liquid	0.06888 W/m/K
382.71 K, 28321 kPa, Liquid	0.07678 W/m/K
382.71 K, 28350 kPa, Liquid	0.07685 W/m/K
382.72 K, 4298 kPa, Liquid	0.06213 W/m/K
382.74 K, 4301 kPa, Liquid	0.06214 W/m/K
382.77 K, 2602 kPa, Liquid	0.06057 W/m/K
382.77 K, 2621 kPa, Liquid	0.06066 W/m/K
382.77 K, 10954 kPa, Liquid	0.06703 W/m/K
382.77 K, 24142 kPa, Liquid	0.07452 W/m/K
382.78 K, 1001 kPa, Fluid (supercritical or subcritical phases)	0.01826 W/m/K
382.78 K, 24124 kPa, Liquid	0.07466 W/m/K
382.79 K, 1000 kPa, Fluid (supercritical or subcritical phases)	0.0181 W/m/K
382.79 K, 10954 kPa, Liquid	0.06707 W/m/K
382.81 K, 530 kPa, Fluid (supercritical or subcritical phases)	0.01767 W/m/K
382.82 K, 7886 kPa, Liquid	0.06511 W/m/K
382.83 K, 1306 kPa, Liquid	0.05933 W/m/K
382.83 K, 8368 kPa, Liquid	0.06524 W/m/K
382.83 K, 8383 kPa, Liquid	0.06552 W/m/K
382.84 K, 1310 kPa, Liquid	0.05941 W/m/K
382.84 K, 7894 kPa, Liquid	0.06495 W/m/K
382.84 K, 20089 kPa, Liquid	0.07256 W/m/K
382.85 K, 20100 kPa, Liquid	0.07257 W/m/K
382.87 K, 883 kPa, Fluid (supercritical or subcritical phases)	0.01794 W/m/K
382.87 K, 885 kPa, Fluid (supercritical or subcritical phases)	0.01792 W/m/K
382.87 K, 35575 kPa, Liquid	0.08013 W/m/K
382.87 K, 35578 kPa, Liquid	0.08012 W/m/K
382.91 K, 1197 kPa, Fluid (supercritical or subcritical phases)	0.01873 W/m/K
382.91 K, 6263 kPa, Liquid	0.06365 W/m/K
382.91 K, 6280 kPa, Liquid	0.06372 W/m/K
382.91 K, 33006 kPa, Liquid	0.07896 W/m/K
382.91 K, 33028 kPa, Liquid	0.07899 W/m/K
382.92 K, 16811 kPa, Liquid	0.07071 W/m/K
382.92 K, 16817 kPa, Liquid	0.0707 W/m/K
382.96 K, 28308 kPa, Liquid	0.07685 W/m/K
382.97 K, 727 kPa, Fluid (supercritical or subcritical phases)	0.01778 W/m/K
382.97 K, 28333 kPa, Liquid	0.07679 W/m/K
382.98 K, 13709 kPa, Liquid	0.06879 W/m/K
382.98 K, 13730 kPa, Liquid	0.06887 W/m/K
383 K, 4290 kPa, Liquid	0.06207 W/m/K
383.01 K, 4292 kPa, Liquid	0.0621 W/m/K
383.03 K, 24102 kPa, Liquid	0.07464 W/m/K
383.04 K, 24119 kPa, Liquid	0.07466 W/m/K
383.05 K, 10954 kPa, Liquid	0.06701 W/m/K
383.06 K, 2617 kPa, Liquid	0.06075 W/m/K
383.06 K, 10970 kPa, Liquid	0.06706 W/m/K
383.07 K, 2612 kPa, Liquid	0.06066 W/m/K
383.08 K, 1001 kPa, Fluid (supercritical or subcritical phases)	0.01823 W/m/K
383.08 K, 1002 kPa, Fluid (supercritical or subcritical phases)	0.01821 W/m/K
